The target of test [1] is T1, His-TEV-DYRK1A Kinase domain (aa127-485) (Homo sapiens, UniProt Q13627).
T1 construct: His-TEV-DYRK1A Kinase domain (aa127-485); His tag (N); TEV protease cleavage site (N)
The test is described as follows: Kinase ADP assay (ADP Hunter), DYRK1A kinase domain. It is filed as biochemical. Conditions: 20 μM ATP. In a few lines: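 Compounds incubated 10 min at 30 °C with 20 nM enzyme, 40 μM peptide substrate and 20 μM ATP in pH 7.4 Hepes buffer with 10 mM MgCl2. ADP formed detected by ADP Hunter Plus reagents after 20 min at 30 °C, fluorescence read at 590 nm.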

For another test, the target named is T2, DYRK1B (Homo sapiens, UniProt Q9Y463).
T2 construct: full-length human kinases from Carna Biosciences; purchased Carna Biosciences 04-131
Nature of the test: Kinase TR-FRET assay, DYRK1B. Format: biochemical. Conditions: full-length human kinase, 10 μM ATP. The essentials: (§1)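 Compounds tested at 0.1 nM to 30 μM in reaction buffer; reaction stopped with 10 mM EDTA. Phosphorylated MBP detected with 1 nM Europium-labelled anti-phospho-Thr232 antibody by TR-FRET.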
(Time-resolved FRET reads energy transfer from a long-lived donor to a nearby acceptor.)

The target of another test is T3, CLK1 (Homo sapiens, UniProt P49759).
T3 construct: full-length human kinases from Carna Biosciences; purchased Carna Biosciences 04-126
Nature of the test: Kinase TR-FRET assay, CLK1. The settings on record: full-length human kinase, 10 μM ATP. It is filed as biochemical. The method, then: Inhibition of the enzymatic activity of human kinases was evaluated in a Time-Resolved Fluorescence Resonance Energy Transfer (TR-FRET) assay in 384-well reaction plates. […] Test compounds of the invention were added in reaction buffer at a range of concentrations from 0.1 nM to 30 μM. Following addition of EDTA (Sigma E7889, 10 mM) to stop the reaction, Europium-labelled mouse monoclonal antibody recognizing phospho-Thr232 in MBP (Perkin Elmer TRF0201, 1 nM) was added.

Another test has as its target T4, CDK9 (Homo sapiens, UniProt P50750).
T4 construct: full-length human kinases from Carna Biosciences; purchased Carna Biosciences 04-110
The test is described as follows: Kinase TR-FRET assay, CDK9. It is filed as biochemical. Conditions: full-length human kinase, 10 μM ATP. In a few lines: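 Full-length human CDK9 (0.9 ng/μl) incubated 100 min at room temperature with 10 μM ATP, 100 nM ULight-MBP peptide and compound (0.1 nM–30 μM) in 50 mM HEPES pH 7.4, 1 mM EGTA, 10 mM MgCl2, 2 mM DTT, 0.01% Tween20. Stopped with 10 mM EDTA, then 1 nM Eu-anti-phospho-Thr232 MBP antibody added for 1 h. TR-FRET read at 665/620 nm with 340 nm excitation.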

The target in test [2] is T5, DYRK1A (Homo sapiens, UniProt Q13627). Nature of the test: Kinase TR-FRET assay, DYRK1A. It is filed as biochemical. Also noted: full-length, wild-type human DYRK1A (NM_001396) with an HA tag; expressed in transfected cells; host or cells: human U2-OS osteosarcoma cells, transient transfection of a pcDNA3.1 plasmid. Conditions: full-length human kinase, 10 μM ATP. In a few lines: as §1

For test [3], the target named is T5, DYRK1A. The test is described as follows: Cellular DYRK1 autophosphorylation assay in U2-OS cells. It is filed as cell-based. More on the design: full-length, wild-type human DYRK1A (NM_001396) with an HA tag; expressed in transfected cells; host or cells: human U2-OS osteosarcoma cells, transient transfection of a pcDNA3.1 plasmid. Conditions: U2-OS cells transfected with HA-tagged human DYRK1A, 5 hours exposure; read-out: IC50 (μM) P-Ser520-Dyrk1A -Cell assay. The essentials:
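U2-OS cells treated with a compound concentration range for 5 h. Phospho-Ser520-DYRK1A measured by western blot densitometry or Mesoscale ELISA. IC50 from dose-response curves; for blots, ratio of phospho-Ser520 to total DYRK1A signal.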

This is an account of results in patent publication US20180273528A1 (LES LABORATOIRES SERVIER, priority 2015, published 2018).

T2 sequence (Q9Y463 whole entry): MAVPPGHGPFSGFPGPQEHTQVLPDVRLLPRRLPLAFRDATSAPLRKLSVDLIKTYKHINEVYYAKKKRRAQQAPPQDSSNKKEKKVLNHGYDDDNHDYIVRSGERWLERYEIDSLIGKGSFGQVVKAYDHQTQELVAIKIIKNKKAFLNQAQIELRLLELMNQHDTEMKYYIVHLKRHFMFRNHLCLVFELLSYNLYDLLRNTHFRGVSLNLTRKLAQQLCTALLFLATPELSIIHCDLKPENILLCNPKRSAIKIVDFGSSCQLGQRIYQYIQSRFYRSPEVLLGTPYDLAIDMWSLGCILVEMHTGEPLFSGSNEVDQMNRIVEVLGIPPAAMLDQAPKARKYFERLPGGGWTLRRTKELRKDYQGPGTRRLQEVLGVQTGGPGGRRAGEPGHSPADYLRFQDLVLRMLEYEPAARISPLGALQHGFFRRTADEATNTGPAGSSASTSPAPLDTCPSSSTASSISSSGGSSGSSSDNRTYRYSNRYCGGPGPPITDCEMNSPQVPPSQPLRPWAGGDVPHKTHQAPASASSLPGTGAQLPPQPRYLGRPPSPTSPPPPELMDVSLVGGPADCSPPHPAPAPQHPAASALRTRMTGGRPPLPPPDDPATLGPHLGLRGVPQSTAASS
T3 sequence (P49759 1-526 isoform P49759-3): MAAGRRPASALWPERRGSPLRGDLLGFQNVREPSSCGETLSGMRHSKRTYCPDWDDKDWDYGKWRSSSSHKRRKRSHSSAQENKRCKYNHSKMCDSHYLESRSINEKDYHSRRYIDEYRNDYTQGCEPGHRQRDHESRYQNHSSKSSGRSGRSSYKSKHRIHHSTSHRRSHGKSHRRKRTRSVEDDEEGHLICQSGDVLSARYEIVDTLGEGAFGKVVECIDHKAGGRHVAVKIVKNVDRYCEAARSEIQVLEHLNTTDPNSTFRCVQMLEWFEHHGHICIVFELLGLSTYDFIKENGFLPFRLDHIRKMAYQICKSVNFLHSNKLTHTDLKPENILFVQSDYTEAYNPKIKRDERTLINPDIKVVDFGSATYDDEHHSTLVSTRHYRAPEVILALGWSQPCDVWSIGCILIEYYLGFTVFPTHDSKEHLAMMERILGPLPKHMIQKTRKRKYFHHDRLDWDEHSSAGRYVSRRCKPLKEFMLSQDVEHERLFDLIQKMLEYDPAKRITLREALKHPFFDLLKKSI
T4 sequence (P50750 whole entry): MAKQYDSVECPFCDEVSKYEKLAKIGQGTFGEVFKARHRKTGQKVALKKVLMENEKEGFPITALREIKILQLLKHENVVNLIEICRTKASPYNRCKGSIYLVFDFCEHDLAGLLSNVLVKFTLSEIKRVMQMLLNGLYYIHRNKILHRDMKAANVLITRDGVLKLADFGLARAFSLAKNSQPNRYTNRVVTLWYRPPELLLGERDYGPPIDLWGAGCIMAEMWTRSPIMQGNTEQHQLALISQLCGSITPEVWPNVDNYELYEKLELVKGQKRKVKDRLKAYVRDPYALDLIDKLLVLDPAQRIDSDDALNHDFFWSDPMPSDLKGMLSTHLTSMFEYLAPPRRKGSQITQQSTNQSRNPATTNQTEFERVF
T4 sequence (O60563 whole entry partner): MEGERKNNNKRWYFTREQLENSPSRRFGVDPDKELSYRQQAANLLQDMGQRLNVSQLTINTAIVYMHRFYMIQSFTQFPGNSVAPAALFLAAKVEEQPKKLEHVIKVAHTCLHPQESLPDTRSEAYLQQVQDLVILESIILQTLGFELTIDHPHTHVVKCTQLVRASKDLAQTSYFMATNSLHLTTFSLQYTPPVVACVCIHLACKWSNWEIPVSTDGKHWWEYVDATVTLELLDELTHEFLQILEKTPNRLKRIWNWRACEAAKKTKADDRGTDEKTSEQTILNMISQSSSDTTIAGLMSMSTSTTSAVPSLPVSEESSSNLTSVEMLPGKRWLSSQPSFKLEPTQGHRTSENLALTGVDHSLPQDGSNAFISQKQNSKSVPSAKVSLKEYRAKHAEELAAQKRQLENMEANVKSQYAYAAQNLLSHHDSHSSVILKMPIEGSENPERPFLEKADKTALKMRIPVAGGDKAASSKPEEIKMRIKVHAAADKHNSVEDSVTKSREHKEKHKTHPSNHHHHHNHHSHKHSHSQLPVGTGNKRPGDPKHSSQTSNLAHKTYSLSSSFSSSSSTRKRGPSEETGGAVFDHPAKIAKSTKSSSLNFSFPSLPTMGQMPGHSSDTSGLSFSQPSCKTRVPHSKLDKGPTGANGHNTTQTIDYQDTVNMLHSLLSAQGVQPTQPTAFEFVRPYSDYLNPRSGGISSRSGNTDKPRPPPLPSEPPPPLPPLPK

The IC50 is the midpoint of a concentration-inhibition curve. Take `Cc1nc2ccc(-c3cc(N)nc(N)c3)nc2n1C1CCOCC1` [Example 49, 4-[2-methyl-3-(tetrahydro-2H-pyran-4-yl)-3H-imidazo[4,5-b]pyridin-5-yl]pyridine-2,6-diamine]: the half-inhibitory concentration (IC50) amounted to 0.011 µM in test [1]; 0.017 µM at DYRK1B; 0.017 µM at CLK1; 0.979 µM against CDK9; 0.003 µM against DYRK1A [2]; 0.13 µM on DYRK1A [3].
On to `C=CCn1c(C)nc2ccc(-c3cc(N)nc(N)c3)nc21` [Example 51, 4-[2-methyl-3-(prop-2-en-1-yl)-3H-imidazo[4,5-b]pyridin-5-yl]pyridine-2,6-diamine], for which the half-inhibitory concentration (IC50) is 0.007 µM in test [1]; 0.001 µM against DYRK1B; 0.029 µM at CLK1; 4.37 µM against CDK9; 0.006 µM against DYRK1A [2]; 0.038 µM at DYRK1A [3].
With `CCCCCn1c(C)nc2ccc(-c3cc(N)nc(N)c3)nc21` [Example 65, 4-(2-methyl-3-pentyl-3H-imidazo[4,5-b]pyridin-5-yl)pyridine-2,6-diamine], the IC50 in test [1] is 0.006 µM; at DYRK1B it was 0.005 µM; at CLK1, 0.018 µM; on CDK9, above 10 µM; on DYRK1A [2], 0.001 µM; on DYRK1A [3] it was 0.022 µM.
In the case of `COc1cc(Cn2c(C)nc3ccc(-c4cc(N)nc(N)c4)nc32)ccn1` [Example 72, 4-{3-[(2-methoxypyridin-4-yl)methyl]-2-methyl-3H-imidazo[4,5-b]pyridin-5-yl}pyridine-2,6-diamine], the IC50 is 0.015 µM in test [1]; 0.014 µM against DYRK1B; 0.09 µM against CLK1; above 10 µM on CDK9; 0.01 µM against DYRK1A [2]; 0.184 µM on DYRK1A [3].
For the compound `Cc1nc2ccc(-c3cc(N)nc(N)c3)nc2n1CCc1ccc2c(c1)OCO2` [Example 73, 4-(3-[2-(1,3-benzodioxol-5-yl)ethyl]-2-methyl-3H-imidazo[4,5-b]pyridin-5-yl)pyridine-2,6-diamine], the IC50 was found to be 0.009 µM in test [1]; 0.008 µM on DYRK1B; 0.019 µM on CLK1; 4.66 µM against CDK9; 0.004 µM on DYRK1A [2]; 0.065 µM on DYRK1A [3].
Turning to `Cc1nc2ccc(-c3cc(N)nc(N)c3)nc2n1CC1CC1(Cl)Cl` (stereo not drawn) [Example 74, 4-{3-[(2,2-dichlorocyclopropyl)methyl]-2-methyl-3H-imidazo[4,5-b]pyridin-5-yl}pyridine-2,6-diamine], the concentration for half-maximal inhibition (IC50) was 0.014 µM in test [1]; 0.01 µM against DYRK1B; 0.021 µM against CLK1; 0.476 µM on CDK9; 0.006 µM against DYRK1A [2]; 0.092 µM on DYRK1A [3].
Consider `Cc1nc2ccc(-c3cc(N)nc(N)c3)nc2n1CCC(C)C` [Example 75, 4-[2-methyl-3-(3-methylbutyl)-3H-imidazo[4,5-b]pyridin-5-yl]pyridine-2,6-diamine], for which the IC50 in test [1] turned out to be 0.012 µM; against DYRK1B it was 0.006 µM; against CLK1 it was 0.019 µM; on CDK9, 0.843 µM; against DYRK1A [2], 0.003 µM; on DYRK1A [3] it was 0.035 µM.
For `Cc1nc2ccc(-c3cc(N)nc(N)c3)nc2n1CC1CCCC1` [Example 89, 4-[3-(cyclopentylmethyl)-2-methyl-3H-imidazo[4,5-b]pyridin-5-yl]pyridine-2,6-diamine], the IC50 in test [1] amounted to 0.014 µM; at DYRK1B, 0.009 µM; against CLK1, 0.024 µM; on CDK9 it was 1.46 µM; on DYRK1A [2], 0.004 µM; at DYRK1A [3] it was 0.068 µM.
With `Cc1nc2ccc(-c3cc(N)nc(N)c3)nc2n1CCc1cccc(C(F)(F)F)c1` [Example 91, 4-(2-methyl-3-{2-[3-(trifluoromethyl)phenyl]ethyl}-3H-imidazo[4,5-b]pyridin-5-yl)pyridine-2,6-diamine], the IC50 in test [1] was determined as 0.013 µM; at DYRK1B, 0.008 µM; against CLK1 it was 0.016 µM; against CDK9, 2.92 µM; at DYRK1A [2], 0.004 µM; on DYRK1A [3], 0.062 µM.
